Data from ChEMBL document CHEMBL3885881, “DrugMatrix”.

Organism: Rattus norvegicus
Assay: DrugMatrix - Regimen: Daily Repeat
Assay type: toxicity, organism-based, Sprague-Dawley
Design: regimen Daily Repeat, gender Male, age 6-8 weeks
Conditions: in vivo, ip, route intraperitoneal, vehicle 100 % SALINE; for ABSOLUTE BASOPHIL / ABSOLUTE EOSINOPHIL / ABSOLUTE LYMPHOCYTE / ABSOLUTE MONOCYTE / ABSOLUTE SEGMENTED NEUTROPHIL / BASOPHIL / EOSINOPHIL / ERYTHROCYTE COUNT / HEMATOCRIT / HEMOGLOBIN / LEUKOCYTE COUNT / LYMPHOCYTE / MEAN CORPUSCULAR HEMOGLOBIN / MEAN CORPUSCULAR HEMOGLOBIN CONCENTRATION / MEAN CORPUSCULAR VOLUME / MONOCYTE / NEUTROPHIL / PLATELET COUNT: tissue Blood
[1] = 0 mg/kg, 120 h, dose level Control, time 5 day
[2] = 0 mg/kg, 120 h, tissue Plasma, dose level Control, time 5 day
[3] = 0 mg/kg, […], dose level Control, time 14 day
[4] = 0 mg/kg, […], dose level Control, time 28 day
[5] = 0 mg/kg, […], tissue Plasma, dose level Control, time 14 day
[6] = 0 mg/kg, […], tissue Plasma, dose level Control, time 28 day

Sequence: COBALTOUS CHLORIDE
- ABSOLUTE BASOPHIL [1]: 32 cells/µL
- ABSOLUTE EOSINOPHIL [1]: 110 cells/µL
- ABSOLUTE LYMPHOCYTE [1]: 6630 cells/µL
- ABSOLUTE MONOCYTE [1]: 140 cells/µL
- ABSOLUTE SEGMENTED NEUTROPHIL [1]: 1170 cells/µL
- BASOPHIL [1]: 0.38%
- EOSINOPHIL [1]: 1.28%
- ERYTHROCYTE COUNT [1]: 7.45 x10E6/uL
- HEMATOCRIT [1]: 45.74%
- HEMOGLOBIN [1]: 14.72 G/DL
- LEUKOCYTE COUNT [1]: 8.11 x10E3/uL
- LYMPHOCYTE [1]: 81.3%
- MEAN CORPUSCULAR HEMOGLOBIN [1]: 19.76 pg
- MEAN CORPUSCULAR HEMOGLOBIN CONCENTRATION [1]: 32.16 G/DL
- MEAN CORPUSCULAR VOLUME [1]: 61.38 fL
- MONOCYTE [1]: 1.76%
- NEUTROPHIL [1]: 14.9%
- PLATELET COUNT [1]: 1322.4 x10E3/uL
- ALANINE AMINOTRANSFERASE [2]: 25.8 u/L
- ALBUMIN [2]: 3.64 G/DL
- ASPARTATE AMINOTRANSFERASE [2]: 81.4 u/L
- BLOOD UREA NITROGEN [2]: 14.4 mg/dL
- CHOLESTEROL [2]: 69.2 mg/dL
- CREATINE PHOSPHOKINASE [2]: 303.2 u/L
- CREATININE [2]: 0.56 mg/dL
- GLUCOSE [2]: 125.4 mg/dL
- LACTATE DEHYDROGENASE [2]: 105.4 u/L
- LIPASE [2]: 22.4 u/L
- POTASSIUM [2]: 5.52 MEQ/L
- SODIUM [2]: 147 MEQ/L
- TOTAL BILIRUBIN [2]: 0.2 mg/dL
- TOTAL PROTEIN [2]: 6.1 G/DL
- URIC ACID [2]: 1.06 mg/dL
- ABSOLUTE BASOPHIL [3]: 130 cells/µL
- ABSOLUTE EOSINOPHIL [3]: 140 cells/µL
- ABSOLUTE LYMPHOCYTE [3]: 13500 cells/µL
- ABSOLUTE MONOCYTE [3]: 400 cells/µL
- ABSOLUTE SEGMENTED NEUTROPHIL [3]: 2330 cells/µL
- BASOPHIL [3]: 0.72%
- EOSINOPHIL [3]: 0.86%
- ERYTHROCYTE COUNT [3]: 7.74 x10E6/uL
- HEMATOCRIT [3]: 45.98%
- LEUKOCYTE COUNT [3]: 16.61 x10E3/uL
- LYMPHOCYTE [3]: 81.34%
- MEAN CORPUSCULAR HEMOGLOBIN [3]: 18 pg
- MEAN CORPUSCULAR HEMOGLOBIN CONCENTRATION [3]: 30.22 G/DL
- MEAN CORPUSCULAR VOLUME [3]: 59.4 fL
- MONOCYTE [3]: 2.46%
- NEUTROPHIL [3]: 14.14%
- PLATELET COUNT [3]: 1445.5 x10E3/uL
- ABSOLUTE BASOPHIL [4]: 91 cells/µL
- ABSOLUTE EOSINOPHIL [4]: 110 cells/µL
- ABSOLUTE LYMPHOCYTE [4]: 9910 cells/µL
- ABSOLUTE MONOCYTE [4]: 210 cells/µL
- ABSOLUTE SEGMENTED NEUTROPHIL [4]: 1560 cells/µL
- BASOPHIL [4]: 0.77%
- EOSINOPHIL [4]: 0.92%
- ERYTHROCYTE COUNT [4]: 8.21 x10E6/uL
- HEMATOCRIT [4]: 47.53%
- HEMOGLOBIN [4]: 15.65 G/DL
- LEUKOCYTE COUNT [4]: 11.91 x10E3/uL
- LYMPHOCYTE [4]: 83.34%
- MEAN CORPUSCULAR HEMOGLOBIN [4]: 19.07 pg
- MEAN CORPUSCULAR HEMOGLOBIN CONCENTRATION [4]: 32.93 G/DL
- MEAN CORPUSCULAR VOLUME [4]: 57.9 fL
- MONOCYTE [4]: 1.68%
- NEUTROPHIL [4]: 12.97%
- PLATELET COUNT [4]: 1323.8 x10E3/uL
- ALANINE AMINOTRANSFERASE [5]: 31.6 u/L
- ALBUMIN [5]: 3.66 G/DL
- ALKALINE PHOSPHATASE [5]: 228.6 u/L
- ASPARTATE AMINOTRANSFERASE [5]: 79.6 u/L
- BLOOD UREA NITROGEN [5]: 11.2 mg/dL
- CHLORIDE [5]: 107 MEQ/L
- CHOLESTEROL [5]: 57 mg/dL
- CREATININE [5]: 0.5 mg/dL
- GLUCOSE [5]: 124.4 mg/dL
- LACTATE DEHYDROGENASE [5]: 106.4 u/L
- LIPASE [5]: 24.4 u/L
- PHOSPHORUS [5]: 10.52 mg/dL
- POTASSIUM [5]: 6.34 MEQ/L
- SODIUM [5]: 149.2 MEQ/L
- TOTAL BILIRUBIN [5]: 0.2 mg/dL
- TOTAL PROTEIN [5]: 6.48 G/DL
- URIC ACID [5]: 0.94 mg/dL
- ALANINE AMINOTRANSFERASE [6]: 30 u/L
- ALBUMIN [6]: 3.71 G/DL
- ALKALINE PHOSPHATASE [6]: 186.8 u/L
- ASPARTATE AMINOTRANSFERASE [6]: 78.2 u/L
- BLOOD UREA NITROGEN [6]: 14.2 mg/dL
- CHOLESTEROL [6]: 44.9 mg/dL
- CREATINE PHOSPHOKINASE [6]: 334.3 u/L
- CREATININE [6]: 0.6 mg/dL
- GLUCOSE [6]: 147.2 mg/dL
- LACTATE DEHYDROGENASE [6]: 123.1 u/L
- LIPASE [6]: 9.6 u/L
- PHOSPHORUS [6]: 10.01 mg/dL
- POTASSIUM [6]: 6.57 MEQ/L
- SODIUM [6]: 149.5 MEQ/L
- TOTAL BILIRUBIN [6]: 0.21 mg/dL
- TOTAL PROTEIN [6]: 6.66 G/DL
- URIC ACID [6]: 1.26 mg/dL
- ABSOLUTE BASOPHIL (10 mg/kg, 120 h, dose level High, time 5 day): 46 cells/µL
